For 22 compounds, EC50 results are on record in US10344019B2 (priority 2010, dated 2019).

Assay in all cases: microbe, parasite or virus in culture
Holding throughout (type): cell-based

The subject of assay [1] is HCV 4a Rluc cells (NS5A chimeric genotype 1b Con1 replicon with genotype 4a NS5A gene). The note with it: Hepatitis C virus, read-out: 4a. The method, boiled down:
(§1)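 Replicon cells stably carrying the listed RLuc-encoding dicistronic replicons were seeded and treated with DMSO serial dilutions of compound (10 mM stocks) diluted into culture medium. After 72 h, cells were lysed and Renilla luciferase activity measured. EC50 was derived by non-linear regression.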

Assay [2] concerns HCV 1a RLuc cells (dicistronic genotype 1a H77 replicon, RLuc reporter). The conditions noted are these: Hepatitis C virus, genotype 1a H77 replicon, RLuc reporter; read-out: 1a. The method, boiled down: (§2)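 Replicons used: genotype 1b Con1, 1a H77, 2a JFH-1, and a 2a JFH-1 chimera with J6-strain NS5A (M31 present), all dicistronic.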
Background: Replicon systems follow genome replication, usually without infectious particles.

Assay [3] concerns HCV 2a JFH-1 Rluc cells (dicistronic genotype 2a JFH-1 replicon, RLuc reporter). The note with it: Hepatitis C virus, genotype 2a JFH-1 replicon, RLuc reporter; read-out: 2a JFH. Put shortly: as §2
In assay [4] the test system is HCV 3a RLuc cells (NS5A chimeric genotype 1b Con1 replicon with consensus genotype 3a NS5A gene). The note with it: Hepatitis C virus, read-out: 3a, genotype 3a NS5A chimeric 1b Con1 replicon. The method, boiled down:
as §1

For assay [5], the system named is HCV 1b RLuc cells (dicistronic genotype 1b Con1 replicon, RLuc reporter). The conditions noted are these: Hepatitis C virus, read-out: 1b (nM). Put shortly: as §2

Consider `COC(=O)N[C@H](C(=O)N1CC(F)(F)C[C@H]1c1ncc(-c2ccc(-c3ccc4cc(-c5cnc([C@@H]6CCCN6C(=O)[C@H](NC(=O)OC)c6ccccc6)[nH]5)ccc4c3)cc2)[nH]1)C1CCOCC1` [Example 224], for which the EC50 in assay [1] is 0.001 to 0.99 nM; in assay [2], 0.001 to 0.999 nM; in assay [3], 0.001 to 0.999 nM; in assay [4] it was 0.001 to 0.99 nM; in assay [5], 0.008 nM.

`COC(=O)N[C@H](C(=O)N1CCC[C@H]1c1ncc(-c2ccc3cc(-c4ccc(-c5cnc([C@@H]6CC(F)(F)CN6C(=O)[C@H](NC(=O)OC)c6ccccc6)[nH]5)cc4)ccc3c2)[nH]1)C1CCOCC1` [Example 225]: the EC50 in assay [1] was 0.001 to 0.99 nM; in assay [2] it was 0.001 to 0.999 nM; in assay [3] it was 0.001 to 0.999 nM; in assay [4], 0.001 to 0.99 nM; in assay [5] it was 0.009 nM.

Turning to `COC(=O)N[C@H](C(=O)N[C@H](c1nc(-c2ccc3c(c2)C(F)(F)c2cc(-c4ccc5nc([C@@H]6CCCN6C(=O)[C@H](NC(=O)OC)c6ccccc6)[nH]c5c4)ccc2-3)c[nH]1)C(C)C)C(C)C` [Example 226], the EC50 in assay [1] is 0.001 to 0.99 nM; in assay [2], 1 to 44 nM; in assay [3], 1 to 44 nM; in assay [4], 1 to 4.99 nM; in assay [5], 0.009 nM.

With `COC(=O)N[C@H](C(=O)N[C@H](c1nc(-c2ccc3c(c2)C(F)(F)c2cc(-c4ccc5nc([C@@H]6CCCN6C(=O)[C@H](NC(=O)OC)c6ccccc6)[nH]c5c4)ccc2-3)c[nH]1)C(C)C)C1CCOCC1` [Example 227], the EC50 in assay [1] is 0.001 to 0.99 nM; in assay [2] it was 1 to 44 nM; in assay [3], 0.001 to 0.999 nM; in assay [4], 0.001 to 0.99 nM; in assay [5], 0.025 nM.

Turning to `COC(=O)NC(C(=O)N1CCC[C@H]1c1nc(-c2ccc3cc(-c4ccc5c(ccc6nc([C@@H]7CCCN7C(=O)[C@@H](NC(=O)OC)C(C)C)[nH]c65)c4)ccc3c2)c[nH]1)c1cccnc1` (some centres unmarked) [Example 228], the EC50 is 0.001 to 0.99 nM in assay [1]; 0.001 to 0.999 nM in assay [2]; 0.001 to 0.999 nM in assay [3]; 0.001 to 0.99 nM in assay [4]; 0.015 nM in assay [5].

Regarding `COC(=O)N[C@H](C(=O)N1CCC[C@H]1c1ncc(-c2ccc(C#Cc3ccc4c(ccc5nc([C@@H]6CCCN6C(=O)[C@@H](NC(=O)OC)C6CCOCC6)[nH]c54)c3)cc2)[nH]1)C(C)C` [Example 229], the EC50 in assay [1] was 0.001 to 0.99 nM; in assay [2], 0.001 to 0.999 nM; in assay [3], 0.001 to 0.999 nM; in assay [4] it was 1 to 4.99 nM; in assay [5], 0.018 nM.

`COC(=O)NC(C(=O)N1CCC[C@H]1c1ncc(-c2ccc(-c3ccc4cc(-c5cnc([C@@H]6CCCN6C(=O)[C@@H](NC(=O)OC)C(C)C)[nH]5)ccc4c3)cc2)[nH]1)c1cnccn1` (some centres unmarked) [Example 230]: the EC50 was 1 to 4.99 nM in assay [1]; 0.001 to 0.999 nM in assay [2]; 1 to 44 nM in assay [3]; 1 to 4.99 nM in assay [4]; 0.012 nM in assay [5].

Consider `COC(=O)NC(C(=O)N1CCC[C@H]1c1ncc(-c2ccc3cc(-c4ccc5c(c4)CCc4nc([C@@H]6CCCN6C(=O)[C@@H](NC(=O)OC)C(C)C)[nH]c4-5)ccc3c2)[nH]1)c1cnccn1` (some centres unmarked) [Example 231], for which the EC50 is 0.001 to 0.99 nM in assay [1]; 0.001 to 0.999 nM in assay [2]; 1 to 44 nM in assay [3]; 1 to 4.99 nM in assay [4]; 0.019 nM in assay [5].

For `COC(=O)N[C@H](C(=O)N1CC(F)(F)C[C@H]1c1ncc(-c2ccc(-c3ccc4cc(-c5cnc([C@@H]6CCCN6C(=O)[C@H](NC(=O)OC)c6ccccc6)[nH]5)ccc4c3)cc2)[nH]1)C(C)C` [Example 232], the EC50 in assay [1] was 0.001 to 0.99 nM; in assay [2] it was 0.001 to 0.999 nM; in assay [3] it was 0.001 to 0.999 nM; in assay [4] it was 0.001 to 0.99 nM; in assay [5] it was 0.004 nM.

Turning to `COC(=O)N[C@H](C(=O)N1CC2(CC2)C[C@H]1c1ncc(-c2ccc(-c3ccc4cc(-c5cnc([C@@H]6CCCN6C(=O)[C@H](NC(=O)OC)c6ccccc6)[nH]5)ccc4c3)cc2)[nH]1)C(C)C` [Example 233], the EC50 is 0.001 to 0.99 nM in assay [1]; 0.001 to 0.999 nM in assay [2]; 0.001 to 0.999 nM in assay [3]; 0.001 to 0.99 nM in assay [4]; 0.005 nM in assay [5].

As for `COC(=O)N[C@H](C(=O)N1CC2(CC2)C[C@H]1c1ncc(-c2ccc(-c3ccc4cc(-c5cnc([C@@H]6CCCN6C(=O)[C@H](NC(=O)OC)c6ccccc6)[nH]5)ccc4c3)cc2)[nH]1)C1CCOCC1` [Example 234], the EC50 in assay [1] is 0.001 to 0.99 nM; in assay [2], 0.001 to 0.999 nM; in assay [3], 0.001 to 0.999 nM; in assay [4], 0.001 to 0.99 nM; in assay [5], 0.011 nM.

Regarding `COC(=O)N[C@H](C(=O)N1CCC[C@H]1c1ncc(-c2ccc3cc(-c4ccc(-c5cnc([C@@H]6CC7(CC7)CN6C(=O)[C@H](NC(=O)OC)c6ccccc6)[nH]5)cc4)ccc3c2)[nH]1)C(C)C` [Example 235], the EC50 was 0.001 to 0.99 nM in assay [1]; 0.001 to 0.999 nM in assay [2]; 0.001 to 0.999 nM in assay [3]; 1 to 4.99 nM in assay [4]; 0.004 nM in assay [5].

Regarding `COC(=O)N[C@H](C(=O)N1CCC[C@H]1c1ncc(-c2ccc3cc(-c4ccc(-c5cnc([C@@H]6CC7(CC7)CN6C(=O)[C@H](NC(=O)OC)c6ccccc6)[nH]5)cc4)ccc3c2)[nH]1)C1CCOCC1` [Example 236], the EC50 is 0.001 to 0.99 nM in assay [1]; 0.001 to 0.999 nM in assay [2]; 0.001 to 0.999 nM in assay [3]; 0.001 to 0.99 nM in assay [4]; 0.011 nM in assay [5].

Consider `COC(=O)N[C@H](C(=O)N1CCC[C@H]1c1ncc(-c2ccc3cc(-c4ccc(-c5cnc([C@@H]6CCCN6C(=O)[C@H](NC(=O)CN(C)C)c6ccccc6)[nH]5)cc4)ccc3c2)[nH]1)C(C)C` [Example 237], for which the EC50 in assay [1] was 0.001 to 0.99 nM; in assay [2], 0.001 to 0.999 nM; in assay [3] it was 0.001 to 0.999 nM; in assay [4], 0.001 to 0.99 nM; in assay [5], 0.023 nM.

Turning to `COC(=O)N[C@H](C(=O)N1CCC[C@H]1c1nc2ccc3cc(C#Cc4ccc(-c5cnc([C@@H]6CCCN6C(=O)[C@H](NC(=O)OC)c6ccccc6)[nH]5)cc4)ccc3c2[nH]1)C(C)C` [Example 238], the EC50 in assay [1] was 0.001 to 0.99 nM; in assay [2] it was 0.001 to 0.999 nM; in assay [3] it was 0.001 to 0.999 nM; in assay [4] it was 0.001 to 0.99 nM; in assay [5], 0.005 nM.

As for `COC(=O)NC(C(=O)N1CCC[C@H]1C1=NC(c2ccc3cc(-c4ccc5c(ccc6nc([C@@H]7CCCN7C(=O)[C@@H](NC(=O)OC)C7CCOCC7)[nH]c65)c4)ccc3c2)=CC1)c1cccnc1` (some centres unmarked) [Example 239], the EC50 in assay [1] was 0.001 to 0.99 nM; in assay [2], 0.001 to 0.999 nM; in assay [3], 0.001 to 0.999 nM; in assay [4] it was 0.001 to 0.99 nM; in assay [5], 0.078 nM.

Regarding `COC(=O)N[C@H](C(=O)N1CCC[C@H]1c1ncc(-c2ccc3cc(-c4ccc(-c5cnc([C@@H]6CCCN6C(=O)[C@@H](NC(=O)OC)[C@@H](C)OC)[nH]5)cc4)ccc3c2)[nH]1)C(C)C` [Example 240], the EC50 in assay [1] is 0.001 to 0.99 nM; in assay [2] it was 0.001 to 0.999 nM; in assay [3], 0.001 to 0.999 nM; in assay [4], 1 to 4.99 nM; in assay [5] it was 0.01 nM.

In the case of `COC(=O)N[C@H](C(=O)N1CCC[C@H]1c1ncc(-c2ccc3cc(-c4ccc(-c5cnc([C@@H]6CCCN6C(=O)[C@@H](NC(=O)OC)[C@H](C)OC)[nH]5)cc4)ccc3c2)[nH]1)C(C)C` [Example 241], the EC50 in assay [1] was 0.001 to 0.99 nM; in assay [2], 0.001 to 0.999 nM; in assay [3] it was 1 to 44 nM; in assay [4], 1 to 4.99 nM; in assay [5], 0.011 nM.

For `COC(=O)N[C@H](C(=O)N1CCC[C@H]1c1nc2c([nH]1)-c1ccc(-c3ccc4cc(-c5cnc([C@@H]6CCCN6C(=O)[C@H](NC(=O)OC(C)(C)C)c6ccccc6)[nH]5)ccc4c3)cc1CC2)C(C)C` [Example 242], the EC50 in assay [1] was 0.001 to 0.99 nM; in assay [2], 0.001 to 0.999 nM; in assay [3] it was 0.001 to 0.999 nM; in assay [4], 0.001 to 0.99 nM; in assay [5], 0.008 nM.

As for `COC(=O)N[C@H](C(=O)N1CCC[C@H]1c1ncc(-c2cccc(-c3ccc4cc(-c5cnc([C@@H]6CCCN6C(=O)[C@@H](NC(=O)OC)C(C)C)[nH]5)ccc4c3)c2)[nH]1)C(C)C` [Example 243], the EC50 in assay [1] was 0.001 to 0.99 nM; in assay [2], more than 44 nM; in assay [3], more than 44 nM; in assay [4] it was more than 5 nM; in assay [5] it was 4.59 nM.

Regarding `COC(=O)N[C@H](C(=O)N1CCC[C@H]1c1nc2c([nH]1)-c1ccc(-c3ccc4cc(-c5cnc([C@@H]6CCCN6C(=O)[C@H](NC(=O)C(C)(C)O)c6ccccc6)[nH]5)ccc4c3)cc1CC2)C(C)C` [Example 244], the EC50 is 0.001 to 0.99 nM in assay [1]; 0.001 to 0.999 nM in assay [2]; 0.001 to 0.999 nM in assay [3]; 0.001 to 0.99 nM in assay [4]; 0.014 nM in assay [5].

In the case of `COC(=O)N[C@H](C(=O)N1CCC[C@H]1c1nc2c([nH]1)-c1ccc(-c3ccc4cc(-c5cnc([C@@H]6CCCN6C(=O)[C@H](NC(=O)CN6CCOCC6)c6ccccc6)[nH]5)ccc4c3)cc1CC2)C(C)C` [Example 245], the EC50 in assay [1] is 0.001 to 0.99 nM; in assay [2] it was 0.001 to 0.999 nM; in assay [3] it was 0.001 to 0.999 nM; in assay [4], 0.001 to 0.99 nM; in assay [5] it was 0.017 nM.
